Test system: alopecia mouse model
Test: Hair growth promotion test in mice with alopecia (testosterone propionate model)
Assay type: in vivo, C57BL/6 mice
Details: for growth of hairs and hair follicles compared to positive control drug group (in words): daily dose 1.5 mg, FIG. 3; for Number of hair follicles (X ± SD): day 18, per field (×100), HE staining, topical once daily for 16 days; for Hair length (X ± SD): day 18, topical once daily for 16 days, testosterone propionate alopecia mice
Protocol: The compounds of the present disclosure were tested for their hair growth-promoting effects on an alopecia mouse model.
C57BL/6 mice (purchased from SPF (Beijing) Biotechnology Co., Ltd., production license No.: SCXK (Beijing) 2019-0010), test compounds (prepared by the method of the present disclosure), rosin (Shanghai YuanYe Bio-Technology Co., Ltd., lot No. Y18M10C83144), liquid paraffin (Shanghai YuanYe Bio-Technology Co., Ltd., lot No.: Z22S11Y125555), chloral hydrate (Sinopharm Chemical Reagent Co., Ltd., lot No.: 20190823, a 2% chloral hydrate solution was prepared by using a 0.9% sodium chloride solution before use), testosterone propionate (Aladdin Reagent (Shanghai) Co., Ltd., lot No.: T101368, a 0.5% testosterone propionate solution was prepared by using an a soybean oil for injection before use), soybean oil for injection (Liaoning Shinsun Pharmaceutical Co., Ltd., lot No.: NMPA Approval No. H21024303), paraformaldehyde (Xilong Scientific Co., Ltd., lot No.: 1705022), a 0.9% sodium chloride solution (Jiangsu Huai'an Shuanghe Pharmaceutical Co., Ltd., lot No.: 210322-3C), an electronic balance (Beijing Sartorius Scientific Instruments Co., Ltd., model: BS224 S; GZX-9140MBE), and a digital display electric heating constant temperature air blast drying oven (Shanghai Boxun Medical Biological Instrument Corp.).
8-week-old male C57BL/6 mice were selected and injected with 2% chloral hydrate (400 mg/kg) for anesthesia. Equal amounts of rosin and paraffin were weighed out, heated, and mixed well. The mixture was applied on the front back of the mice in an area of about 2 cm×2.5 cm. After the mixture was cooled to be hard, the solidified hair was torn off by tweezers gently.
Qualified C57BL/6 mice (3 mice per group) were randomly assigned to a blank group, a model group, a positive control drug group (7.5% clascoterone group), and test groups (including 0.3% compound 8 group and 0.3% compound 7 group). Mice in the blank group were coated with 0.1 mL of normal saline in the depilated area every morning (1 time a day for 17 consecutive days); mice in the model group were coated with 0.1 mL of 0.5% testosterone propionate solution in the depilated area every morning (1 time a day, starting on the first day, for 17 consecutive days), and with 0.5 mL of the control solvent in the depilated area every afternoon (1 time a day, starting on the second day, for 16 consecutive days); mice in the positive control drug group were coated with 0.1 mL of 0.5% testosterone propionate solution in the depilated area every morning (1 time a day, starting on the first day, for 17 consecutive days), and with 0.5 mL of 7.5% clascoterone solution in the depilated area every afternoon (1 time a day, starting on the second day, for 16 consecutive days); and mice in the test groups were coated with 0.1 mL of 0.5% testosterone propionate solution in the depilated area every morning (1 time a day, starting on the first day, for 17 consecutive days), and with 0.5 mL of 0.3% test compound solution in the depilated area every afternoon (1 time a day, starting on the second day, for 16 consecutive days). The formula of the test compound solution was 0.3% test compound, 40% DMSO, 30% ethanol, and the balance of water; the formula of the control solvent was 40% DMSO, 30% ethanol, and the balance of water; the formula of the positive control drug group was 7.5% clascoterone, 40% DMSO, 30% ethanol, and the balance of water. The hair regrowth in the depilated area of the mice in each group was observed and photographed 16 days after the start of topical administration of the test compound solution.
On day 18 of the test, 5 new hairs were pulled out from the back depilated area of each mouse in each group, the lengths of the hairs were measured using a vernier caliper, and the lengths of the hairs of the mice in each group were counted. The skin of the depilated area of the mice in each group was cut out, and hematoxylin-eosin staining (HE staining) was performed. […]

Compound | growth of hairs and hair follicles compared to positive control drug group (in words) | Number of hair follicles (X ± SD) | Hair length (X ± SD) [mm]
COc1ccc(/C=C/C(=O)C2(C(=O)/C=C/c3ccc(OC)c(OC)c3)CCC(F)(F)CC2)cc1OC [Compound 8] | better than that of the positive control drug group | 116.733 ± 35.809 | 4.493 ± 0.024
COc1ccc(/C=C/C(=O)C2(C(=O)/C=C/c3ccc(OC)c(OC)c3)CCC(=O)CC2)cc1OC [Compound 7] | better than that of the positive control drug group | 95.600 ± 26.091 | 3.850 ± 0.009

— patent US20250295609A1, “COMPOUND HAVING ANTI-ANDROGEN RECEPTOR ACTIVITY, AND USE THEREOF” (NANJING MINOVA PHARMACEUTICAL CO., LTD., priority 2022, published 2025)
